Patent publication US20160369307A1, “METHOD OF INCREASING BIOMASS AND LIPID CONTENT IN A MICRO-ORGANISM AND A GENETICALLY MODIFIED MICRO-ORGANISM EXHIBITING ENHANCED AUTOPHAGY” (RELIANCE INDUSTRIES LIMITED, priority 2014, published 2016)
Where a SMILES comes first, the peptide text is derived from it. The star is where a group is joined. Cbz = O=C(OCc1ccccc1)*; CH2F = FC*

Assays:
Chlorella sorokiniana [1] = assay: Cell count of Chlorella sorokiniana under salinity stress with LiCl; assay type: cell-based; settings: for Cell Density at Day 0: Day 0, day of salinity exposure (baseline); for Cell Density at Day 4: Day 4 of salinity stress
Method: 5mM LiCl was added to the TAP medium in the Experimental plates, but not in the Control. […]
Thus, it can be concluded that even in environmental stress conditions like exposure to salinity, treatment of the algal cells with LiCl prevents cll death, increases the biomass and lipid content of the algal cells, and concomitantly yields an increased amount of commercially valuable products like oils which are known to be produced by the algal cells.

Chlorella sorokiniana [2] = assay: Recovery of Chlorella sorokiniana cultures after UV exposure with z-vad-fmk; assay type: cell-based
Method: 1×10^6 cells/ml of Chlorella sorokiniana were grown for three days in Tris-Acetate-Phosphate (TAP) medium and then exposed to UV at 250000 μJ/cm^2 for one minute using CL-1000 UV crosslinker. Immediately after UV exposure, 25 μM Z-vad-fmk was added to the TAP medium. The cultures were kept in the dark for 24 hours. Cultures were then exposed to light of 2000 lux for 12 hours followed by 12 hours of darkness.
FIG. 1B graphically represents the optical density at 750 nm of the Control cultures versus the optical density of the cultures treated with z-vad-fmk on the 13th day after UV exposure. From these figures it is clear that z-vad-fmk induced autophagy in the Chlorella sorokiniana cells helping the cells to recover from UV exposure. […] Thus, it can be concluded that even in environmental stress conditions like exposure to UV, treatment of the algal cells with z-vad-fmk prevents cell death, increases the biomass and lipid content of the algal cells, and concomitantly yields an increased amount of commercially valuable products like oils which are known to be produced by the algal cells.

[3] = TAP + 0.6% Salinity + 5 mM LiCl
[4] = TAP + 1.2% Salinity + 5 mM LiCl

Row | SMILES | Cell counts versus Control after salinity stress (FIG. 2) (Chlorella sorokiniana [1]; 5 mM LiCl, after 4 days of salinity stress exposure) | Cell Density at Day 0 (Chlorella sorokiniana [1]; [3]) | Cell Density at Day 4 (Chlorella sorokiniana [1]; [3]) | Cell Density at Day 0 (Chlorella sorokiniana [1]; [4]) | Cell Density at Day 4 (Chlorella sorokiniana [1]; [4]) | Revival of bleached cultures after UV exposure (Chlorella sorokiniana [2]; 25 μM added to TAP medium immediately after UV 250000 μJ/cm^2 for one minute, 10 days) | Culture viability (plates, FIG. 1A) after UV exposure (Chlorella sorokiniana [2]; 25 μM, 13 days after UV exposure, versus Control plates)
1 | [Cl-].[Li+] [LiCl] | higher cell counts | 2.6 × 10^6 cells/ml | 6.57 × 10^6 cells/ml | 2.6 × 10^6 cells/ml | 7.22 × 10^6 cells/ml |  | 
2 | COC(=O)C[C@H](NC(=O)[C@H](C)NC(=O)[C@@H](NC(=O)OCc1ccccc1)C(C)C)C(=O)CF [z-vad-fmk] (Cbz-Val-Ala-Asp(OMe)-CH2F) |  |  |  |  |  | only z-vad-fmk treated cultures were seen to revive after 10 days | only the z-vad-fmk treated plates show viable cultures
